Results taken from ChEMBL document CHEMBL5543140 (J Med Chem, 2024).
Calls of active or inactive are those of the source. No cut-off for these calls is given here.

How the values were obtained:
[1] = molecular target: T1, 5-hydroxytryptamine receptor 2C (Homo sapiens, UniProt P28335); test: Binding affinity to human [125I]LSD-labeled 5-HT2C receptor expressed in HEK293 cell membrane incubated for 60 mins; format: cell membranes
T1 sequence (P28335 whole entry): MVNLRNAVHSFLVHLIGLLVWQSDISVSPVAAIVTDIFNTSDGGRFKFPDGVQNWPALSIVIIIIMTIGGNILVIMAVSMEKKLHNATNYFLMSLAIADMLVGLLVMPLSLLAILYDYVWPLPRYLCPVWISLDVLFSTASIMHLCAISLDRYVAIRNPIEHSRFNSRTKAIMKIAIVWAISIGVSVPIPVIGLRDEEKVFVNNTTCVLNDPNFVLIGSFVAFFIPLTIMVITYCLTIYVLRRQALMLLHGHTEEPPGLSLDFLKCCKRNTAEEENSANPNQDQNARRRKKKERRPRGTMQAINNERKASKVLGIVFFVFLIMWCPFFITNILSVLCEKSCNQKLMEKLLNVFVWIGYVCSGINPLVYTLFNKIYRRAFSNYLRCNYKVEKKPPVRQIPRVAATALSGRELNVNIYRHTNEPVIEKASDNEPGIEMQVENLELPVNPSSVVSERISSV

[2] = molecular target: 5-hydroxytryptamine receptor 7 (Homo sapiens, UniProt P34969); test: Displacement of [3H]LSD from 5-HT7 receptor (unknown origin) assessed as inhibition binding
[3] = molecular target: T2, 5-hydroxytryptamine receptor 1A (Homo sapiens) (UniProt P08908); test: Agonist activity at human 5-HT1A receptor expressed in HEK293T cells co-transfected with 22F-Glosensor assessed as inhibition of cAMP production measured after 30 mins incubation by Microbeta2Micro-plate counter analysis; format: functional, cell-based; conditions: filed as agonist
T2 sequence (whole entry): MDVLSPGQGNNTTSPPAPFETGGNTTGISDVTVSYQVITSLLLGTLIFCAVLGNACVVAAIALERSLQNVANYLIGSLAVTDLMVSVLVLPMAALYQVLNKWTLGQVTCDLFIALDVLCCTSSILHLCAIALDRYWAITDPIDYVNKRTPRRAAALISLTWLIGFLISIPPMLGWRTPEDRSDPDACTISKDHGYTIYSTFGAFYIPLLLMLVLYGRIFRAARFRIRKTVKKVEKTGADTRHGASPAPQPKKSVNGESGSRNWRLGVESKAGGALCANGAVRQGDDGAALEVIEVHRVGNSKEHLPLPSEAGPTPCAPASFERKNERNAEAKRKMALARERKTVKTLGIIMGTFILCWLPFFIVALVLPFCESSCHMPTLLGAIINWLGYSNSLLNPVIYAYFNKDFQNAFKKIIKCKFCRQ

Mus musculus [4] = test: Locomotor activity in C57BL/6J mouse assessed as distance traveled at 1 mg/kg, po measured for 15 to 25 mins (reference value: 1710 +/- 120 cm) by Ethovision tracking system; format: functional; conditions: time 15-25 min
Mus musculus [5] = test: Psychedelic effect in C57BL/6J mouse assessed as development of tolerance/ tachyphylaxis at 3 mg/kg, sc measured on day 4 by head-twitch responses test; format: functional, organism-based; conditions: time 4.0 day
[6] = Ex vivo binding in C57BL/6J mouse brain frontal cortex assessed as specific binding [3H]Cimbi-36 at 1 mg/kg, sc measured after 15 mins by liquid scintillation counting analysis (reference value: 1092 +/- 53); format: functional; conditions: 0.25 h
[7] = Ex vivo binding in C57BL/6J mouse brain frontal cortex assessed as inhibition of [3H]Cimbi-36 binding at 1 mg/kg, sc measured after 360 mins by liquid scintillation counting analysis (reference value: 0%); format: functional; conditions: 6 h
Mus musculus [8] = test: Induction of neuroplasticity in C57BL/6J mouse assessed as increase in EGR2 mRNA expression in brain frontal cortex at 3 mg/kg, sc single dose by RT-PCR analysis; format: functional, organism-based
Hippocampus [9] = test: Induction of neuroplasticity in C57BL/6J mouse assessed as increase in Homer1 mRNA expression in brain hippocampus at 0.3 mg/kg, sc single dose by RT-PCR analysis; format: functional, organism-based
Hippocampus [10] = test: Induction of neuroplasticity in C57BL/6J mouse assessed as increase in CREB1 mRNA expression in brain hippocampus at 0.3 mg/kg, sc single dose by RT-PCR analysis; format: functional, organism-based
[11] = Metabolic stability in rat hepatocytes assessed as half life at 10 uM; format: ADME, cell-based, Hepatocyte
[12] = Cmax in Wistar rat plasma at 1 mg/kg, iv measured upto 48 hrs; format: ADME, organism-based
[13] = Absolute oral bioavailability in Wistar rat plasma at 5 mg/kg, […] measured upto 48 hrs; format: ADME, organism-based
[14] = Drug excretion in Wistar rat urine at 5 mg/kg, po measured upto 48 hrs; format: ADME, organism-based; conditions: read-out: Drug excretion
[15] = AUClast in male Sprague-Dawley rat plasma at 1 mg/kg, iv measured upto 8 hrs by LC-MS/MS analysis; format: ADME, organism-based
[16] = MRTinf in male Sprague-Dawley rat CSF at 1 mg/kg, iv measured upto 8 hrs by LC-MS/MS analysis; format: ADME, organism-based, Cerebrospinal fluid

Sequence of 5-hydroxytryptamine receptor 7 (P34969 whole entry): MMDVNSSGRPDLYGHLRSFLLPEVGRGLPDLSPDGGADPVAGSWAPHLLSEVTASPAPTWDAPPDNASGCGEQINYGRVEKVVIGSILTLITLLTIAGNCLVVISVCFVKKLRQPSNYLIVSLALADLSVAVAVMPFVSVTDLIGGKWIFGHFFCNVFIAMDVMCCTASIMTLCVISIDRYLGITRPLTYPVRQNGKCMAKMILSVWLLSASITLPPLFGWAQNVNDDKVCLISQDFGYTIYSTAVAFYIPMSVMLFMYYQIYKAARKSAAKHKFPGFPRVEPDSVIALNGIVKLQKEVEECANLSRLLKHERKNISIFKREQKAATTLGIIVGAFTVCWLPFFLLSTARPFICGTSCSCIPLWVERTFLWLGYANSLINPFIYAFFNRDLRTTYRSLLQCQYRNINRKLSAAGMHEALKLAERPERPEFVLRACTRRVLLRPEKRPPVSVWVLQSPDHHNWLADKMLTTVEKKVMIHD

Work on COc1cc([Se]C(F)(F)F)c(OC)cc1CCN.Cl yielded a Ki [1] of 6.7 nM, a Ki [2] of 4920 nM and an Emax [3] of 95%. For the same molecule, the Activity (Mus musculus [4]) was 2602 cm, the Activity (Mus musculus [5]) was “inactive” and the Activity [6] was 971. For the same molecule, the inhibition in vivo at 1 mg/kg [7] was 25%, the Activity (Mus musculus [8]) was “Active” and the Activity (Hippocampus [9]) was “inactive”. For the same molecule, the Activity (Hippocampus [10]) was “inactive”, the half-life at 10 µM [11] was 16 h and the Cmax [12] was 54.1 ng/mL. For the same molecule, the bioavailability [13] was 19.1%, the dose excreted at 48 h [14] was 0.3% and the AUC(0-t) at 8 h [15] was 207 ng·h/mL. The MRT inf [16] was 1.51 h.
